Reference: US9693556B2, “Herbicidal pyridazinone derivatives” (SYNGENTA LIMITED, priority 2011, dated 2017)

What was measured:
Type in all cases: in vivo
[1] = tested on: Alopecurus myosuroides (ALOMY); test: Pre-emergence herbicidal glasshouse test on Alopecurus myosuroides; settings: pre-emergence; 1000 g/h; evaluated after 13 days
Procedure, shortened: (§1)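 Application rate 1000 g/h, formulated in acetone/water (50:50) with 0.5% Tween 20 and sprayed onto pots sown 1 day (pre-emergence) or 8 days (post-emergence) earlier. Evaluation at 13 days rated damage from 1 (0-19%) to 5 (80-100%).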

Setaria faberi (SETFA) [2] = test: Pre-emergence herbicidal glasshouse test on Setaria faberi; settings: pre-emergence; 1000 g/h; evaluated after 13 days
Procedure, shortened: as §1

[3] = tested on: Echinochloa crus-galli (ECHCG); test: Pre-emergence herbicidal glasshouse test on Echinochloa crus-galli; settings: pre-emergence; 1000 g/h; evaluated after 13 days
Procedure, shortened: as §1

Solanum nigrum (SOLNI) [4] = test: Pre-emergence herbicidal glasshouse test on Solanum nigrum; settings: pre-emergence; 1000 g/h; evaluated after 13 days
Procedure, shortened: as §1

[5] = tested on: Amaranthus retoflexus (AMARE); test: Pre-emergence herbicidal glasshouse test on Amaranthus retoflexus; settings: pre-emergence; 1000 g/h; evaluated after 13 days
Procedure, shortened: as §1

[6] = tested on: Ipomoea hederacea (IPOHE); test: Pre-emergence herbicidal glasshouse test on Ipomoea hederacea; settings: pre-emergence; 1000 g/h; evaluated after 13 days
Procedure, shortened: as §1

[7] = tested on: Alopecurus myosuroides (ALOMY); test: Post-emergence herbicidal glasshouse test on Alopecurus myosuroides; settings: post-emergence; 1000 g/h; evaluated after 13 days
Procedure, shortened: as §1

Setaria faberi (SETFA) [8] = test: Post-emergence herbicidal glasshouse test on Setaria faberi; settings: post-emergence; 1000 g/h; evaluated after 13 days
Procedure, shortened: as §1

[9] = tested on: Echinochloa crus-galli (ECHCG); test: Post-emergence herbicidal glasshouse test on Echinochloa crus-galli; settings: post-emergence; 1000 g/h; evaluated after 13 days
Procedure, shortened: as §1

Solanum nigrum (SOLNI) [10] = test: Post-emergence herbicidal glasshouse test on Solanum nigrum; settings: post-emergence; 1000 g/h; evaluated after 13 days
Procedure, shortened: as §1

[11] = tested on: Amaranthus retoflexus (AMARE); test: Post-emergence herbicidal glasshouse test on Amaranthus retoflexus; settings: post-emergence; 1000 g/h; evaluated after 13 days
Procedure, shortened: as §1

[12] = tested on: Ipomoea hederacea (IPOHE); test: Post-emergence herbicidal glasshouse test on Ipomoea hederacea; settings: post-emergence; 1000 g/h; evaluated after 13 days
Procedure, shortened: as §1

SMILES | PRE Application ALOMY herbicidal damage (five point scale) [1] | PRE Application SETFA herbicidal damage (five point scale) (Setaria faberi (SETFA) [2]) | PRE Application ECHCG herbicidal damage (five point scale) [3] | PRE Application SOLNI herbicidal damage (five point scale) (Solanum nigrum (SOLNI) [4]) | PRE Application AMARE herbicidal damage (five point scale) [5] | PRE Application IPOHE herbicidal damage (five point scale) [6] | POST Application ALOMY herbicidal damage (five point scale) [7] | POST Application SETFA herbicidal damage (five point scale) (Setaria faberi (SETFA) [8]) | POST Application ECHCG herbicidal damage (five point scale) [9] | POST Application SOLNI herbicidal damage (five point scale) (Solanum nigrum (SOLNI) [10]) | POST Application AMARE herbicidal damage (five point scale) [11] | POST Application IPOHE herbicidal damage (five point scale) [12]
Cc1c(Cl)ccc(-c2cnn(C)c(=O)c2O)c1F [Compound 1.045] | 1 (1=0-19% damage) | 1 (1=0-19% damage) | 1 (1=0-19% damage) | 1 (1=0-19% damage) | 1 (1=0-19% damage) | 1 (1=0-19% damage) | 1 (1=0-19% damage) | 1 (1=0-19% damage) | 1 (1=0-19% damage) | 4 (4=60-79% damage) | 2 (2=20-39% damage) | 1 (1=0-19% damage)
Cn1ncc(-c2ccc(Cl)c(F)c2Cl)c(O)c1=O [Compound 1.092] | 1 (1=0-19% damage) | 1 (1=0-19% damage) | 1 (1=0-19% damage) | 1 (1=0-19% damage) | 1 (1=0-19% damage) | 1 (1=0-19% damage) | 1 (1=0-19% damage) | 1 (1=0-19% damage) | 1 (1=0-19% damage) | 2 (2=20-39% damage) | 1 (1=0-19% damage) | 2 (2=20-39% damage)
Cn1ncc(-n2cccc(-c3ccc(C(F)(F)F)cc3)c2=O)c(O)c1=O [Compound 7.001] | 1 (1=0-19% damage) | 1 (1=0-19% damage) | 1 (1=0-19% damage) | 1 (1=0-19% damage) | 1 (1=0-19% damage) | 1 (1=0-19% damage) | 2 (2=20-39% damage) | 3 (3=40-59% damage) | 4 (4=60-79% damage) | 4 (4=60-79% damage) | 3 (3=40-59% damage) | 2 (2=20-39% damage)
CCCCn1cc(C)cc(-c2cnn(C)c(=O)c2O)c1=O [Compound 6.003] | 1 (1=0-19% damage) | 1 (1=0-19% damage) | 1 (1=0-19% damage) | 1 (1=0-19% damage) | 1 (1=0-19% damage) | 1 (1=0-19% damage) | 2 (2=20-39% damage) | 2 (2=20-39% damage) | 4 (4=60-79% damage) | 4 (4=60-79% damage) | 4 (4=60-79% damage) | 2 (2=20-39% damage)
Cc1cc(F)ccc1-c1cnn(C)c(=O)c1O [Compound 1.093] | 1 (1=0-19% damage) | 1 (1=0-19% damage) | 1 (1=0-19% damage) | 1 (1=0-19% damage) | 1 (1=0-19% damage) | 1 (1=0-19% damage) | 1 (1=0-19% damage) | 1 (1=0-19% damage) | 1 (1=0-19% damage) | 2 (2=20-39% damage) | 1 (1=0-19% damage) | 1 (1=0-19% damage)
C=Cc1cccc(-c2c(C(F)(F)F)ccn(-c3cnn(C)c(=O)c3O)c2=O)c1 [Compound 7.011] | 2 (2=20-39% damage) | 2 (2=20-39% damage) | 1 (1=0-19% damage) | 5 (5=80-100% damage) | 5 (5=80-100% damage) | 2 (2=20-39% damage) | 1 (1=0-19% damage) | 3 (3=40-59% damage) | 5 (5=80-100% damage) | 5 (5=80-100% damage) | 5 (5=80-100% damage) | 3 (3=40-59% damage)
COc1ccc(Cl)c(-c2cnn(C)c(=O)c2O)c1 [Compound 1.090] | 1 (1=0-19% damage) | 1 (1=0-19% damage) | 1 (1=0-19% damage) | 1 (1=0-19% damage) | 1 (1=0-19% damage) | 1 (1=0-19% damage) | 1 (1=0-19% damage) | 1 (1=0-19% damage) | 1 (1=0-19% damage) | 2 (2=20-39% damage) | 1 (1=0-19% damage) | 1 (1=0-19% damage)
Cn1ncc(-c2ccc(C(F)(F)F)n(C)c2=O)c(O)c1=O [Compound 9.010] | 1 (1=0-19% damage) | 1 (1=0-19% damage) | 5 (5=80-100% damage) | 1 (1=0-19% damage) | 5 (5=80-100% damage) | 1 (1=0-19% damage) | 2 (2=20-39% damage) | 2 (2=20-39% damage) | 4 (4=60-79% damage) | 5 (5=80-100% damage) | 5 (5=80-100% damage) | 4 (4=60-79% damage)
Cn1ncc(-c2ccc(C(F)(F)F)nc2Oc2ccccc2)c(O)c1=O [Compound 4.008] | 1 (1=0-19% damage) | 1 (1=0-19% damage) | 1 (1=0-19% damage) | 1 (1=0-19% damage) | 5 (5=80-100% damage) | 1 (1=0-19% damage) | 1 (1=0-19% damage) | 2 (2=20-39% damage) | 2 (2=20-39% damage) | 5 (5=80-100% damage) | 5 (5=80-100% damage) | 4 (4=60-79% damage)
Cn1ncc(-n2ccc(C(F)(F)F)c(-c3cccc(S(C)(=O)=O)c3)c2=O)c(O)c1=O [Compound 7.023] | 2 (2=20-39% damage) | 4 (4=60-79% damage) | 2 (2=20-39% damage) | 5 (5=80-100% damage) | 5 (5=80-100% damage) | 2 (2=20-39% damage) | 1 (1=0-19% damage) | 4 (4=60-79% damage) | 4 (4=60-79% damage) | 5 (5=80-100% damage) | 5 (5=80-100% damage) | 1 (1=0-19% damage)
Cn1ncc(-c2ccc(F)cc2C(F)(F)F)c(O)c1=O [Compound 1.112] | 1 (1=0-19% damage) | 1 (1=0-19% damage) | 1 (1=0-19% damage) | 1 (1=0-19% damage) | 1 (1=0-19% damage) | 1 (1=0-19% damage) | 1 (1=0-19% damage) | 1 (1=0-19% damage) | 1 (1=0-19% damage) | 4 (4=60-79% damage) | 5 (5=80-100% damage) | 4 (4=60-79% damage)
